These results are taken from PubChem BioAssay (NCI).

Common to all, as to assay: growth of human tumour cells (NCI), 48 h
Assay [1] deals with COLO 205 colon.
Assay [2] has as its system DU-145 prostate.
For assay [3], the system named is HL-60(TB) leukemia.
Assay [4] concerns LOX IMVI melanoma.
The test system of assay [5] is NCI-H23 lung.
Assay [6] has as its system OVCAR-5 ovarian.
For assay [7], the system named is SF-268 CNS.
Assay [8] relates to SR leukemia.
The test system of assay [9] is T-47D breast.
Assay [10] has as its system UO-31 renal.

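These data come from cells grown in 96-well plates and exposed to compound for 48 hours at five concentrations. Abbreviation: GI50, concentration required for 50% inhibition of growth. The concentration for full growth arrest is given as TGI.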

Take `O=C(Nc1ccccc1Cl)c1ccc(NC2=C(Cl)C(=O)N(Cc3ccccc3)C2=O)cc1`: the GI50 in assay [1] was 51.3 µM; in assay [2], above 100 µM; in assay [3], 22.5 µM; in [4] it was 17.9 µM; in assay [5], 19.2 µM; in [6] it was above 100 µM. Moreover, the GI50 is 23.3 µM in assay [7], 15.7 µM in [8], 62.4 µM in assay [9] and above 100 µM in assay [10]. Also, the TGI in assay [1] was above 100 µM; in assay [2], above 100 µM; in [3], 50.6 µM; in assay [4], 32.6 µM; in [5], 35.7 µM; in assay [6], above 100 µM. In addition, the TGI is 55.1 µM in assay [7], 41.5 µM in [8], above 100 µM in assay [9] and above 100 µM in [10].
Regarding `CC(C)(C)NNc1c([N+](=O)[O-])cnn(-c2ccccc2)c1=O`, the TGI in assay [1] stood at 12.6 µM; in assay [2] it was 26 µM; in [3], 5.24 µM; in [4], 3.32 µM; in assay [5], 11.1 µM; in [6], 15.5 µM. Besides, the TGI was 31 µM in assay [7], 4.67 µM in assay [8], 4.36 µM in assay [9] and 12.8 µM in assay [10].
Turning to `O=C(O)/C(Cl)=C(/Cl)C(=O)Nc1cccc(Cl)c1`, the TGI was 23.3 µM in assay [1]; above 100 µM in [2]; 22.7 µM in assay [3]; 20.8 µM in [4]; 36.4 µM in assay [5]; 39.7 µM in assay [6]. In addition, the TGI is 48.3 µM in [7], 26.4 µM in assay [8], 50.8 µM in [9] and 37.4 µM in [10].
On to `Oc1ccc2ccccc2c1/C=N\Nc1ccccn1`, for which the GI50 in [1] was 27.6 µM; in assay [2], 0.482 µM; in assay [3] it was 0.267 µM; in assay [4], 0.275 µM; in assay [5], 0.539 µM; in assay [6], 4.25 µM. Further, the GI50 was 0.436 µM in [7], 0.357 µM in assay [8], 0.97 µM in [9] and 0.114 µM in [10]. The TGI in assay [1] is above 100 µM; in [3], 0.795 µM; in [5], above 100 µM; in assay [6] it was above 100 µM; in [7], above 100 µM; in assay [8] it was above 100 µM. Moreover, the TGI in [9] is above 100 µM; in [10], 1.31 µM.
With `Cc1ccc(/C=C2\CCOC2=O)cc1`, the GI50 in assay [1], in [2], in assay [3], in assay [4], in assay [5] and in assay [6] was above 100 µM in each case. The GI50 in assay [7] was 60.2 µM; in [8], above 100 µM; in assay [9], above 100 µM; in [10], 41.8 µM. Moreover, the TGI in [1], in [2], in [3], in assay [4], in assay [5] and in assay [6] was above 100 µM each time. Also, the TGI in assay [7], in [8], in assay [9] and in assay [10] was above 100 µM throughout.
For the molecule `Cc1ccc(/C=C(\C#N)n2nnc3cc(F)c(F)cc32)cc1`, the GI50 in [1] was 1.82 µM; in [2], 3.32 µM; in assay [3], 3.16 µM; in assay [4] it was 2.88 µM; in assay [5], 5.21 µM; in assay [6] it was 3.39 µM. In addition, the GI50 in assay [7] was 3.63 µM; in assay [8], 0.391 µM; in assay [9], 1.19 µM; in [10] it was 2.8 µM. In addition, the TGI in assay [1] is 3.76 µM; in assay [2], 15.6 µM; in assay [3], above 100 µM; in [4] it was 11.4 µM; in assay [5] it was 28 µM; in [6], above 100 µM. For the same molecule, the TGI amounted to 20.9 µM in assay [7], 13.9 µM in [8], 5.39 µM in assay [9] and 14.2 µM in [10].
With `COC(=O)c1c(-c2ccccc2)csc1NC(=O)c1c(-c2ccccc2)noc1C`, the GI50 was 1.21 µM in [1]; 1.98 µM in [2]; 1.32 µM in assay [3]; 0.24 µM in [4]; above 29.7 µM in assay [5]; 0.89 µM in [7]. For the same molecule, the results for the GI50 in assay [8], in [9] and in assay [10] were 0.282 µM, 3.41 µM and 8.88 µM, respectively. For the same molecule, the TGI in [1] was above 100 µM; in assay [2] it was above 100 µM; in assay [3], above 100 µM; in assay [4], 3.56 µM; in [5] it was above 100 µM; in [6], above 100 µM. For the same molecule, the TGI in assay [7], in assay [8], in assay [9] and in [10] was above 100 µM in each case.
With `Cn1c2ccccc2c2c3c(c4c5ccccc5n(CCCCCC#N)c4c21)C(=O)N(O)C3=O`, the GI50 in assay [1] is 2.5 µM; in assay [2], 0.381 µM; in assay [3], 0.381 µM; in assay [4] it was 0.167 µM; in assay [5], 1.18 µM; in assay [6] it was 2.43 µM. In addition, the GI50 in assay [7] was 0.624 µM; in assay [8], 0.333 µM; in assay [9] it was 0.419 µM; in assay [10], 0.374 µM. The TGI was 9.09 µM in [1]; above 100 µM in [2]; 1.81 µM in assay [3]; 1.24 µM in [4]; 9.91 µM in [5]; 8.04 µM in assay [6]. Further, the TGI was above 100 µM in [7], above 100 µM in assay [8], 6.89 µM in [9] and 1.97 µM in assay [10].
